Data: US20240158446A1, “CYCLIC COMPOUND HAVING SELECTIVE INHIBITORY ACTION ON KRAS OVER HRAS AND NRAS” (CHUGAI SEIYAKU KABUSHIKI KAISHA, priority 2021, published 2024)
Read-outs that look alike come from different tables or passages of the source.

Columns and labels:
[1] = target: GDP-bound KRAS wild-type protein (Homo sapiens, UniProt P01116); test: Binding to KRAS by surface plasmon resonance (SPR), Single Cycle Kinetics
[2] = system: human lung cancer strain NCI-H441;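 further: cell proliferation inhibition after four days measured by CellTiter-Glo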
[3] = target: GDP-bound NRAS wild-type protein (Homo sapiens, UniProt P01111); test: Binding to NRAS by surface plasmon resonance (SPR), Single Cycle Kinetics; details: for NRAS/KRAS (ratio of KD value for NRAS to KD value for KRAS): GDP-bound NRAS wild-type protein vs GDP-bound KRAS wild-type protein
GDP-bound NRAS wild-type protein, sequence (P01111 whole entry): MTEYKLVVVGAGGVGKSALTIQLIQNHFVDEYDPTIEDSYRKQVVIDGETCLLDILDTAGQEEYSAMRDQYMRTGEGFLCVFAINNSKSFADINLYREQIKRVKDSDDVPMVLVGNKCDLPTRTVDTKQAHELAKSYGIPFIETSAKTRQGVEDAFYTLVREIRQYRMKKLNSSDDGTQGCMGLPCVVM

[4] = target: GDP-bound HRAS wild-type protein (Homo sapiens, UniProt P01112); test: Binding to HRAS by surface plasmon resonance (SPR), Single Cycle Kinetics; details: for HRAS/KRAS (ratio of KD value for HRAS to KD value for KRAS): GDP-bound HRAS wild-type protein vs GDP-bound KRAS wild-type protein
GDP-bound HRAS wild-type protein, sequence (P01112 whole entry): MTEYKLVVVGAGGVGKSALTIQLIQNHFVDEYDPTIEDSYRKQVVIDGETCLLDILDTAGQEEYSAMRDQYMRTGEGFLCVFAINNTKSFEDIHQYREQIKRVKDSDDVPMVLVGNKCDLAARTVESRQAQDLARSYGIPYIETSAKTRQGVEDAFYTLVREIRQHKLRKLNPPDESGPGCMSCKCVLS

[5] = SPR, Single Cycle Kinetics, GDP-bound KRAS wild-type protein, read-out: KRAS KD
[6] = SPR, Single Cycle Kinetics, 1:1 binding model, GDP-bound KRAS wild-type protein, read-out: KRAS KD

GDP-bound KRAS wild-type protein, sequence (P01116 whole entry): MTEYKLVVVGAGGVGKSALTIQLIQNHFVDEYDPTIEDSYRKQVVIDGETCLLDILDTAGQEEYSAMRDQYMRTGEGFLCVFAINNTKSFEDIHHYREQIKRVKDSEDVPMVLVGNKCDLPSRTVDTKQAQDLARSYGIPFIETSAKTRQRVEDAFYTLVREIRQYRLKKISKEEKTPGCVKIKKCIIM

Row | SMILES | Kd [1, 5] [nM] | IC50 [2] [nM] | NRAS/KRAS (ratio of KD value for NRAS to KD value for KRAS) ([3]; SPR) | HRAS/KRAS (ratio of KD value for HRAS to KD value for KRAS) ([4]; SPR) | Kd [1, 6] [nM] | NRAS/KRAS (ratio of KD value for NRAS to KD value for KRAS) ([3]; SPR, KD ratio class) | HRAS/KRAS (ratio of KD value for HRAS to KD value for KRAS) ([4]; SPR, KD ratio class) | also measured
1 | CCO[C@@H]1C[C@H]2C(=O)NC3(CCC3)C(=O)N(C)[C@@H](C3CCCC3)C(=O)N(C)[C@H](C(=O)N(C)C)CC(=O)N(C)[C@@H](Cc3cccc(C#N)c3)C(=O)N[C@@H]([C@@H](C)CC)C(=O)N(C)CC(=O)N(C)[C@H]3CCCCCN(C3=O)[C@@H](Cc3ccc(F)cc3)C(=O)N(C)CC(=O)N[C@@H](CCc3cc(F)c(C(F)(F)F)c(F)c3)C(=O)N2C1 [PP1156] | 0.063 | 33.7 | B (a compound having 3 or more and less than 10 is denoted as B) | B (a compound having 3 or more and less than 10 is denoted as B) |  |  |  | 
2 | CCC[C@H]1C(=O)N[C@@H]([C@@H](C)CC)C(=O)N2CCC[C@H]2C(=O)N(C)[C@H]2C/C=C\CCN(C2=O)[C@@H](Cc2ccc(C(F)(F)F)cc2)C(=O)N(C)CC(=O)N[C@@H](CCc2cc(F)c(C(F)(F)F)c(F)c2)C(=O)N2C[C@H](OCC)C[C@H]2C(=O)N(C)C2(CCC2)C(=O)N(C)[C@@H](C2CCCC2)C(=O)N(C)[C@H](C(=O)N2CCCCC2)CC(=O)N1C [PP3114] | 4.5 |  | AA (a compound having 20 or more is denoted as AA) | A (a compound having 10 or more and less than 20 is denoted as A) |  |  |  | Kd ([1]; SPR, Single Cycle Kinetics, 1:1 binding model, read-out: KD value with respect to GDP-bound KRAS wild-type protein): 4.5 nM; IC50 ([2]; read-out: NCI-H441 cell proliferation inhibitory activity, 50% proliferation inhibitory concentration (IC50 value), NCI-H441, four days, CellTiter-Glo): 14.7 nM; ratio of the KD value with respect to GDP-bound NRAS wild-type protein to the KD value with respect to KRAS ([3]; SPR, KD(NRAS)/KD(KRAS)): AA (a compound having 20 or more is denoted as AA); ratio of the KD value with respect to GDP-bound HRAS wild-type protein to the KD value with respect to KRAS ([4]; SPR, KD(HRAS)/KD(KRAS)): A (a compound having 10 or more and less than 20 is denoted as A)
3 | CC[C@H](C)[C@@H]1NC(=O)[C@H](COC)N(C)C(=O)C[C@@H](C(=O)N2CCCCC2)N(C)C(=O)[C@H](C2CCCC2)N(C)C(=O)C2(CC(C)(C)C2)NC(=O)[C@@H]2C[C@@H](OC3CCC3)CN2C(=O)[C@H](CCc2cc(F)c(C(F)(F)F)c(F)c2)NC(=O)CN(C)C(=O)[C@H](Cc2ccc(C(F)(F)F)cc2)N2CC/C=C\C[C@@H](C2=O)N(C)C(=O)CN(C)C1=O [PP2664] |  | 19.8 |  |  |  |  |  | Kd ([1]; SPR Single Cycle Kinetics, GDP-bound KRAS wild-type protein, 1:1 binding model, read-out: KRAS KD): 0.37 nM; NRAS/KRAS (ratio of KD value with respect to GDP-bound NRAS wild-type protein to KD value with respect to KRAS) ([3]; SPR KD ratio NRAS/KRAS, class symbols): A (a compound having 10 or more and less than 20 is denoted as A); HRAS/KRAS (ratio of KD value with respect to GDP-bound HRAS wild-type protein to KD value with respect to KRAS) ([4]; SPR KD ratio HRAS/KRAS, class symbols): B (a compound having 3 or more and less than 10 is denoted as B)
4 | CCC[C@H]1C(=O)N[C@@H]([C@@H](C)CC)C(=O)N(C)CC(=O)N(C)[C@H]2C/C=C\CCN(C2=O)[C@@H](Cc2ccc(C(F)(F)F)cc2)C(=O)N(C)CC(=O)N[C@@H](CCc2ccc(C(F)(F)F)c(OC)c2)C(=O)N2C[C@H](OCC)C[C@H]2C(=O)N(C)C2(CCC2)C(=O)N(C)[C@@H](C(CC)CC)C(=O)N(C)[C@H](C(=O)N(C)C)CC(=O)N1C [PP2382] | 0.12 | 4.6 | A (a compound having 10 or more and less than 20 is denoted as A) | A (a compound having 10 or more and less than 20 is denoted as A) |  |  |  | 
5 | CC[C@H](C)[C@@H]1NC(=O)[C@H](CC)N(C)C(=O)C[C@@H](C(=O)N2CCOCC2)N(C)C(=O)[C@H](C2CCCC2)N(C)C(=O)C2(CCC2)NC(=O)[C@@H]2CCCN2C(=O)[C@H](CCc2cc(F)c(C(F)(F)F)c(F)c2)NC(=O)CN(C)C(=O)[C@H](Cc2ccc(C(F)(F)F)cc2)N2C[C@H](C)CC[C@@H](C2=O)N(C)C(=O)CN(C)C1=O [PP1384] |  | 13.5 |  |  | 0.11 | A (a compound having 10 or more and less than 20 is denoted as A) | B (a compound having 3 or more and less than 10 is denoted as B) | 
6 | CCO[C@@H]1C[C@H]2C(=O)NC3(CCC3)C(=O)N(C)[C@@H](C(CC)CC)C(=O)N(C)[C@H](C(=O)N(C)C)CC(=O)N(C)[C@@H](CC3CC3)C(=O)N[C@@H]([C@@H](C)CC)C(=O)N(C)CC(=O)N(C)[C@H]3C/C=C\CCN(C3=O)[C@@H](Cc3ccc(C(F)(F)F)cc3)C(=O)N(C)CC(=O)N[C@@H](CCc3ccc4sccc4c3)C(=O)N2C1 [PP1227] |  | 128 |  |  | 1.6 | A (a compound having 10 or more and less than 20 is denoted as A) | A (a compound having 10 or more and less than 20 is denoted as A) | 
7 | CC[C@H](C)[C@@H]1NC(=O)[C@H](CC(C)C)N(C)C(=O)C[C@@H](C(=O)N2CCOCC2)N(C)C(=O)[C@H](C2CCCC2)N(C)C(=O)C2(CCC2)NC(=O)[C@@H]2C[C@@H](OCC(C)C)CN2C(=O)[C@H](CCc2cc(F)c(C(F)(F)F)c(F)c2)NC(=O)CN(C)C(=O)[C@H](Cc2ccc(C(F)(F)F)cc2)N2CCCC[C@@H](C2=O)N(C)C(=O)CN(C)C1=O [PP1160] | 0.032 | 18.4 | B (a compound having 3 or more and less than 10 is denoted as B) | B (a compound having 3 or more and less than 10 is denoted as B) |  |  |  | 
8 | CCOC[C@H]1C(=O)N[C@@H]([C@@H](C)CC)C(=O)N(C)CC(=O)N(C)[C@H]2C/C=C\CCN(C2=O)[C@@H](Cc2ccc(C)cc2)C(=O)N(C)CC(=O)N[C@@H](CCc2ccc(C(F)(F)F)c(Cl)c2)C(=O)N2C[C@H](OCC)C[C@H]2C(=O)NC2(CC(C)(C)C2)C(=O)N(C)[C@@H](C2CCCC2)C(=O)N(C)[C@H](C(=O)N(C)C)CC(=O)N1C [PP2395] | 0.072 | 6.3 | A (a compound having 10 or more and less than 20 is denoted as A) | B (a compound having 3 or more and less than 10 is denoted as B) |  |  |  | 
9 | CCC[C@H]1C(=O)N[C@@H]([C@@H](C)CC)C(=O)N(C2CC2)CC(=O)N(C)[C@H]2C/C=C\CCN(C2=O)[C@@H](CC2CCC(F)(F)CC2)C(=O)N(C)CC(=O)N[C@@H](CCc2ccc(Cl)c(Cl)c2)C(=O)N2C[C@H](OC(C)C)C[C@H]2C(=O)NC2(CC(C)(C)C2)C(=O)N(C)[C@@H](C2CCCC2)C(=O)N(C)[C@H](C(=O)N(C)C)CC(=O)N1C [PP2521] | 2.8 | 129 | A (a compound having 10 or more and less than 20 is denoted as A) | A (a compound having 10 or more and less than 20 is denoted as A) |  |  |  | 
10 | CCO[C@@H]1C[C@H]2C(=O)NC3(CCC3)C(=O)N(C)[C@@H](C3CCCC3)C(=O)N(C)[C@H](C(=O)N(C)C)CC(=O)N(C)[C@@H](CC)C(=O)N[C@@H]([C@@H](C)CC)C(=O)N(C)CC(=O)N(C)[C@H]3C/C=C\CCN(C3=O)[C@@H](Cc3ccc(C(F)(F)F)cc3)C(=O)N(C)CC(=O)N[C@@H](CCc3ccc(C(F)(F)F)c(OC)c3)C(=O)N2C1 [PP1243, (2S,8S,12R,14S,20S,23S,27S,30S,36S,38Z)-20-cyclopentyl-12-ethoxy-27-ethyl-8-[2-[3-methoxy-4-(trifluoromethyl)phenyl]ethyl]-N,N,4,19,22,26,32,35-octamethyl-30-[(1S)-1-methylpropyl]-3,6,9,15,18,21,25,28,31,34,42-undecaoxo-2-[[4-(trifluoromethyl)phenyl]methyl]spiro[1,4,7,10,16,19,22,26,29,32,35-undecazatricyclo[34.5.1.0^10,14]dotetracont-38-ene-17,1′-cyclobutane]-23-carboxamide] |  | 13.2 |  |  | 0.058 | A (a compound having 10 or more and less than 20 is denoted as A) | A (a compound having 10 or more and less than 20 is denoted as A) | 
11 | CCC[C@H]1C(=O)N[C@@H]([C@@H](C)CC)C(=O)N(C)CC(=O)N(C)[C@H]2C/C=C\CCN(C2=O)[C@@H](CC2CCCCC2)C(=O)N(C)CC(=O)N[C@@H](CCc2ccc(C(F)(F)F)c(OC)c2)C(=O)N2C[C@@H](C)C[C@H]2C(=O)N(C)C2(CCC2)C(=O)N(C)[C@@H](C2CCCC2)C(=O)N(C)[C@H](C(=O)N(C)C)CC(=O)N1C [PP2370] | 0.54 | 25.7 | B (a compound having 3 or more and less than 10 is denoted as B) | B (a compound having 3 or more and less than 10 is denoted as B) |  |  |  | 
12 | CCO[C@@H]1C[C@H]2C(=O)NC3(CCC3)C(=O)N(C)[C@@H](C3CCCC3)C(=O)N(C)[C@H](C(=O)N(C)C)CC(=O)N(C)[C@@H](CC(C)C)C(=O)N[C@@H]([C@@H](C)CC)C(=O)N(C)CC(=O)N(C)[C@H]3C/C=C\CCN(C3=O)[C@@H](Cc3ccc(C(F)(F)F)cc3)C(=O)N(C)CC(=O)N[C@@H](CCc3ccc(Cl)c(Cl)c3)C(=O)N2C1 [PP1251] |  | 10.2 |  |  | 0.18 | AA (a compound having 20 or more is denoted as AA) | A (a compound having 10 or more and less than 20 is denoted as A) | 
